# In ChEMBL document CHEMBL3758163, “Extended structure-activity study of thienopyrimidine-based EGFR inhibitors with evaluation of drug-like properties” (Eur J Med Chem, 2016):
# Tests used:
# [1] = target: Epidermal growth factor receptor (Homo sapiens, UniProt P00533); assay: Inhibition of EGFR (unknown origin) by Z -LYTE assay
# [2] = in vitro; conditions: human, Caco-2
# Description: Efflux ratio of permeability from basolateral to apical side over apical to basolateral side in human Caco2 cells at 10 uM by LC-MS/MS analysis
# [3] = Aqueous solubility of compound in 0.01 M PBS buffer at pH 7.4 after 2 hrs by turbidimetric assay; format: physicochemical
# [4] = Half-life in human liver microsomes at 3 uM by LC-MS/MS analysis; format: ADME
# [5] = Intrinsic clearance in human liver microsomes at 3 uM by LC-MS/MS analysis; format: ADME; conditions: read-out: CLH
# [6] = species on record: Danio rerio; assay: Toxicity in zebrafish embryo assessed mortality after 50 to 70 hrs; format: organism-based; conditions: in vivo
# [7] = Toxicity in zebrafish embryo assessed as survival for 3.5 days; format: organism-based, Danio rerio; conditions: in vivo
# [8] = system: Danio rerio; assay: Toxicity in zebrafish embryo assessed as cardiac oedema; format: organism-based; conditions: in vivo
# [9] = species on record: Danio rerio; assay: Toxicity in zebrafish embryo assessed as blood circulation defects; format: organism-based; conditions: in vivo
# [10] = species on record: Danio rerio; assay: Toxicity in zebrafish embryo assessed as kinked tail; format: organism-based; conditions: in vivo
# [11] = Toxicity in zebrafish embryo assessed as morphological defects for 3.5 days; format: organism-based, Danio rerio
# [12] = species on record: Danio rerio; assay: Toxicity in zebrafish embryo assessed as effect on morphology at <12.5 uM; format: organism-based; conditions: in vivo
# [13] = species on record: Danio rerio; assay: Toxicity in zebrafish embryo assessed mortality measured for 24 hrs; format: organism-based; conditions: in vivo
# Epidermal growth factor receptor, sequence (P00533 whole entry): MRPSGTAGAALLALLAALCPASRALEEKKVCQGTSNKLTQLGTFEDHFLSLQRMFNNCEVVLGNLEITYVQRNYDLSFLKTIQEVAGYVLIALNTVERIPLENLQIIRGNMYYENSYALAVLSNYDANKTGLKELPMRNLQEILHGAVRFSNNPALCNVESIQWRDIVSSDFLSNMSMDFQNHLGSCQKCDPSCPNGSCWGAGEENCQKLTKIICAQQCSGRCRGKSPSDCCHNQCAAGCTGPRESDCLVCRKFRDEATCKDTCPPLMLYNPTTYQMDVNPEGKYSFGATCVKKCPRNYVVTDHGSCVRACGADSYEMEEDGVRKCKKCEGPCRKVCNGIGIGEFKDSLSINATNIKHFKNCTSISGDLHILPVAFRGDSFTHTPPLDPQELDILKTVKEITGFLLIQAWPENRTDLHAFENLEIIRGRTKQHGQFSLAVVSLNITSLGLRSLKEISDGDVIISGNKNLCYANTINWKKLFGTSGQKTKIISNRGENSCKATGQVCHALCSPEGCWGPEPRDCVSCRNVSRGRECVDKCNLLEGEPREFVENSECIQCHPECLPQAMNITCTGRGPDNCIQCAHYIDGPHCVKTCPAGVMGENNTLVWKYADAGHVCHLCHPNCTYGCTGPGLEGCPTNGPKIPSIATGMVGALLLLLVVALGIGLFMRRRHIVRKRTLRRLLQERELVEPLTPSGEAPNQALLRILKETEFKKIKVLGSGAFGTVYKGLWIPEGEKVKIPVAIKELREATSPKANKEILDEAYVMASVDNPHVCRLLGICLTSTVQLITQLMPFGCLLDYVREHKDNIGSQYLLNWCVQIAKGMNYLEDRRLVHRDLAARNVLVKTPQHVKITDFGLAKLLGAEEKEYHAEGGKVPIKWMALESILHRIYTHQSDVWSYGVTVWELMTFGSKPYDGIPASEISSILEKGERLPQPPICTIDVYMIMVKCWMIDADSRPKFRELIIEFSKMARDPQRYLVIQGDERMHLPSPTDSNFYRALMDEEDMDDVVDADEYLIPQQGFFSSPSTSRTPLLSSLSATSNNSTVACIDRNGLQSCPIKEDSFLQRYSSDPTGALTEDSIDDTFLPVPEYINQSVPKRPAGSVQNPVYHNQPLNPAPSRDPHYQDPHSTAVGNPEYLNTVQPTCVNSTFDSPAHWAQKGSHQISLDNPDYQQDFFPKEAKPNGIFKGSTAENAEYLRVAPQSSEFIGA
IC50 [1],SMILES,also measured
48 nM,OCc1ccc(-c2cc3c(NCc4ccccc4)ncnc3s2)cc1,
5 nM,COc1cc(CO)ccc1-c1cc2c(NCc3ccccc3)ncnc2s1,
6 nM,COc1cc(F)ccc1-c1cc2c(N[C@H](C)c3ccccc3)ncnc2s1,
0.5 nM,COc1cc(C(=O)NCCN(C)C)ccc1-c1cc2c(N[C@H](C)c3ccccc3)ncnc2s1,efflux ratio at 10 µM [2]: 18; solubility kinetic at 2 h [3]: > 100 µM; half-life at 3 µM [4]: 3.78 h; microsomal CLint at 3 µM [5]: 6.1 µL/min/mg
6 nM,COc1cc(C=O)ccc1-c1cc2c(NCc3ccccc3)ncnc2s1,
6 nM,C[C@@H](Nc1ncnc2sc(-c3cccc(C=O)c3)cc12)c1ccccc1,
5 nM,C[C@@H](Nc1ncnc2sc(-c3cccc(C(N)=O)c3)cc12)c1ccccc1,
9 nM,COC(=O)c1cccc(-c2cc3c(N[C@H](C)c4ccccc4)ncnc3s2)c1OC,
41 nM,C[C@@H](Nc1ncnc2sc(-c3ccc(S(C)(=O)=O)cc3)cc12)c1ccccc1,
20 nM,COC(=O)c1ccc(-c2cc3c(N[C@H](C)c4ccccc4)ncnc3s2)c(OC)c1,
19 nM,C[C@@H](Nc1ncnc2sc(-c3ccc(C(=O)O)cc3)cc12)c1ccccc1,
3 nM,OCc1cccc(-c2cc3c(N[C@H](CO)c4ccccc4)ncnc3s2)c1,
4 nM,COC(=O)c1cc(OC)c(-c2cc3c(N[C@H](C)c4ccccc4)ncnc3s2)c(OC)c1,
26 nM,C[C@@H](Nc1ncnc2sc(-c3cccc(S(C)(=O)=O)c3)cc12)c1ccccc1,
13 nM,C[C@@H](Nc1ncnc2sc(-c3ccc(CO)cc3F)cc12)c1ccccc1,
3 nM,COc1ccc(C=O)cc1-c1cc2c(N[C@H](C)c3ccccc3)ncnc2s1,

IC50 [1],SMILES,also measured
13 nM,COc1cccc(-c2cc3c(N[C@H](C)c4ccccc4)ncnc3s2)c1OC,
5 nM,COc1cc(C=O)ccc1-c1cc2c(Nc3ccc(F)c(Cl)c3)ncnc2s1,
3 nM,COc1c(C(=O)NCCN(C)C)cccc1-c1cc2c(N[C@H](C)c3ccccc3)ncnc2s1,
21 nM,OCc1ccc(-c2cc3c(Nc4ccccc4)ncnc3s2)cc1,
21 nM,COc1c(C=O)cccc1-c1cc2c(N[C@H](C)c3ccccc3)ncnc2s1,
7 nM,COC(=O)c1ccc(OC)c(-c2cc3c(N[C@H](C)c4ccccc4)ncnc3s2)c1,
1.5 nM,COc1c(CO)cccc1-c1cc2c(N[C@H](C)c3ccccc3)ncnc2s1,
2 nM,COc1cccc(OC)c1-c1cc2c(N[C@H](C)c3ccccc3)ncnc2s1,
7 nM,C[C@@H](Nc1ncnc2sc(-c3ccc(C(N)=O)cc3)cc12)c1ccccc1,
0.9 nM,C[C@@H](Nc1ncnc2sc(-c3cccc(C(=O)NCCN(C)C)c3)cc12)c1ccccc1,efflux ratio at 10 µM [2]: 8.9; solubility kinetic at 2 h [3]: > 100 µM; half-life at 3 µM [4]: 1.58 h
9 nM,OC[C@@H](Nc1ncnc2sc(-c3ccccc3)cc12)c1ccccc1,
2 nM,COc1cc(C(N)=O)ccc1-c1cc2c(N[C@H](C)c3ccccc3)ncnc2s1,
5 nM,COc1ccc(CO)cc1-c1cc2c(N[C@H](C)c3ccccc3)ncnc2s1,
8 nM,C[C@@H](Nc1ncnc2sc(-c3cccc(C(=O)O)c3)cc12)c1ccccc1,
59 nM,C[C@@H](Nc1ncnc2sc(-c3ccc(C=O)cc3F)cc12)c1ccccc1,

SMILES,IC50 [1],also measured
COc1cccc(OC)c1-c1cc2c(N[C@H](CO)c3ccccc3)ncnc2s1,0.9 nM,Activity [6]: Toxic; LC50 at 84 h [7]: 18000 nM; Activity [8]: Toxic; Activity [9]: Toxic; Activity [10]: Toxic; half-life at 3 µM [4]: 0.567 h; EC50 at 3.5 days [11]: 12000 nM; microsomal CLint at 3 µM [5]: 41 µL/min/mg
COc1cc(C(=O)NCCN(C)C)cc(OC)c1-c1cc2c(N[C@H](C)c3ccccc3)ncnc2s1,0.4 nM,efflux ratio at 10 µM [2]: 40; LC50 at 84 h [7]: 15000 nM; Activity [12]: Non-toxic; Activity [13]: Toxic; solubility kinetic at 2 h [3]: 65 µM; half-life at 3 µM [4]: 2.37 h; microsomal CLint at 3 µM [5]: 9.7 µL/min/mg
